Consider one compound from PMC2879362, “Design of Group IIA Secreted/Synovial Phospholipase A2 Inhibitors: An Oxadiazolone Derivative Suppresses Chondrocyte Prostaglandin E2 Secretion” (PLoS ONE, 2010).

Structures are written as SMILES. Entries after “also recorded” stand apart in the source; their conditions may differ.

Series [1] deals with rabbit articular chondrocytes. Description: MTT cell viability of IL-1β-treated articular chondrocytes. Format: cell-based. The following applies: IL-1β 1 ng/mL 20 h. Here is the method:
We assessed the viability of the chondrocytes by MTT assay to evaluate the cytotoxic effects of C8 on these cells. Chondrocytes were treated for 20 h with 1 ng/mL IL-1β alone or 1 h after the addition of C8 at 0.31 to 9.92 µM, which corresponded to 0.5- to 5-fold the IC50 of C8 on human GIIAPLA2 activity (Table 2). Three different culture medium compositions were used: DMEM alone, or supplemented with 0.1% BSA or 2% FCS. […] Thus, we evaluated the anti-inflammatory activity of C8 in culture conditions from 0.31 to 1.24 µM in DMEM alone and from 0.31 to 4.96 µM in DMEM supplemented with 0.1% BSA or 2% FCS.
Articular chondrocytes were isolated from 5-week-old Fauve de Bourgogne female rabbits (CPA, Orleans, France) and cultured at the first passage in conditions avoiding cell dedifferentiation as previously described. Cells were cultured at 37°C in 12-well plates in Ham's F-12 medium containing 10% FCS, 20 IU/mL penicillin, and 20 µg/mL streptomycin (all from Invitrogen) until nearly confluent. Then medium was replaced with DMEM (Invitrogen) containing 20 IU/mL penicillin, and 20 µg/mL streptomycin and, if necessary, 0.1% fatty acid free BSA (Sigma) or 2% FCS. At this time the C8 compound dissolved in DMSO (Sigma) was added to the medium (the amount of DMSO was kept at 1‰ (v/v) in all the wells). 1 h after the addition of C8, IL-1β (PeproTech) was added to the medium. Consequently, chondrocytes were incubated for 20 h with IL-1β and for 21 h with C8.
At 18 h after the addition of IL-1β, 3-[4,5-dimethylthiazol-2-yl]-2,5-diphenyl tetrazolium bromide (MTT; Sigma) was added to the cell culture medium at 0.5 mg/mL. Cells were incubated 2 more hours at 37°C. The medium was then removed, and DMSO was added to dissolve the formazan crystals. The absorbance of the resulting solution was spectrophotometrically measured at 570 and 690 nm (background). The value corresponding to absorbance570nm - absorbance690nm was directly proportional to the number and activity of the viable cells.

The subject of series [2] is iNOS. Briefly: Western blot of iNOS protein level in IL-1β-treated chondrocytes. The series is classed as cell-based, rabbit. The following applies: C8 0.31-1.24 µM in DMEM, IL-1β 20 h. Here is the method: As expected, COX-1 protein was detectable but COX-2 and iNOS proteins were undetectable in untreated control conditions (Fig. 6A). […] Consequently, the protein ratio of COX-1 to COX-2 was not modified by C8 (Fig. 6B). […] Cell lysates were centrifuged for 15 min at 14000 rpm at 4°C and supernatants were collected. Protein concentrations were determined by the Bradford method by use of the Protein Assay dye reagent (Bio-Rad). Protein extracts (20 µg) were size-separated by SDS-PAGE in a 10% (w/v) polyacrylamide gel and electroblotted to a nitrocellulose membrane. Equal protein loading and transfer was confirmed by staining the membrane with Ponceau Red [0.2% (w/v) in H2O:acetic acid 99∶1]. The membrane was sequentially incubated with antibodies against COX-1 (1∶200, Santa Cruz Biotechnology), COX-2 (1∶500, Santa Cruz Biotechnology), iNOS (1∶400, BD Biosciences) or α-tubulin (1∶100, Santa Cruz Biotechnology) and then with peroxidase-conjugated donkey anti-goat IgG (1∶20000) or donkey anti-rabbit IgG (1∶200, both Santa Cruz Biotechnology). Immunocomplexes were detected by an enhanced chemiluminescence kit (Amersham Bioscience). The membrane was stripped by incubation in 0.2 M NaOH between successive immunodetections. Semi-quantitative scanning densitometry involved use of the ImageJ program (NIH, USA).

As for `O=c1[nH]c(Cc2ccc(OCCCCCOc3cc4ccccc4c4ccccc34)cc2)no1` [C8], the “cytotoxic effects (MTT)” value in series [1] (DMEM alone, C8 at 0.31 to 2.48 µM) is “no cytotoxic effects”; in series [1] (DMEM with 0.1% BSA, C8 at 0.31 to 9.92 µM), “no cytotoxic effects; also recorded: did not decrease cell viability”; in series [1] (DMEM with 2% FCS, C8 at 0.31 to 9.92 µM), “no cytotoxic effects; also recorded: did not decrease cell viability”. Besides, the “effect on iNOS protein level” value in series [2] is recorded as “did not alter”.
